This is an account of results in patent US20060204449A1, “Nasal pharmaceutical composition of piribedil” (priority 2003, published 2006).

Data set [1] in a line: Kinetics, tolerance and bioavailability study in healthy volunteers (nasal administration). The class given is in vivo, humans. To be noted: human, plasma, inhaled or intranasal, formulation of Example 1, deduced from the kinetics results, read-out: bioavailability of piribedil administered by the nasal route. How it is done:
Kinetics, Tolerance and Bioavailability Study in Healthy Volunteers
A study was carried out in 24 healthy volunteers in order to assess the local tolerance of the pharmaceutical composition according to the invention and also the kinetics of the formulation.
This study was carried out using the formulation described in Example 1, administered with the aid of a metering pump which delivers 100 μl of solution on each spray. The doses of piribedil tested are as follows: 0.1 mg, 0.25 mg, 0.5 mg, 1 mg and 2 mg, administered using two sprays each of 100 μl.

For data set [2] the following is noted: humans; cited from earlier work.

Consider `c1cnc(N2CCN(Cc3ccc4c(c3)OCO4)CC2)nc1` [piribedil, Piribedil], for which the bioavailability in data set [1] lay within 50 to 70%. Also, the “bioavailability by the oral route in relation to the parenteral route” value in data set [2] was “low”.

The term bioavailability denotes the share of a dose that reaches the circulation, judged against a reference dose that is usually intravenous.
